From PubChem BioAssay AID2060891 (Molecular Pharmacology Branch, DTP, NCI, 2025)
pIC50: −log10 of the molar value.

System: K98450-129-R-PDC complex spheroid growth, percent test/control
Assay: Anticancer human tumor K98450-129-R-PDC patient-derived colon adenocarcinoma cell line growth inhibition [RAS]
Conditions: for pIC50: curve of first compound; for viability, T/C: stronger effect = lower value
Method in brief: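 Multi-cell-type spheroids: tumor cells plus HUVEC endothelial cells and mesenchymal stem cells. RAS-pathway inhibitors were combined with targeted agents, each dosed in half-log steps down from clinical Cmax, or from 10 microM when Cmax was unknown.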

[1] = second compound 0.000949 µM, first compound 0.0316 µM
[2] = second compound 0.000949 µM, first compound 0.1 µM
[3] = second compound 0.000949 µM, first compound 0.316 µM
[4] = second compound 0.000949 µM, first compound 1 µM
[5] = second compound 0.000949 µM, first compound 3.16 µM
[6] = second compound 0.000949 µM, first compound 10 µM
[7] = second compound 0.003 µM, first compound 0.0316 µM
[8] = second compound 0.003 µM, first compound 0.1 µM
[9] = second compound 0.003 µM, first compound 0.316 µM
[10] = second compound 0.003 µM, first compound 1 µM
[11] = second compound 0.003 µM, first compound 3.16 µM
[12] = second compound 0.003 µM, first compound 10 µM
[13] = second compound 0.00949 µM, first compound 0.0316 µM
[14] = second compound 0.00949 µM, first compound 0.1 µM
[15] = second compound 0.00949 µM, first compound 0.316 µM
[16] = second compound 0.00949 µM, first compound 1 µM
[17] = second compound 0.00949 µM, first compound 3.16 µM
[18] = second compound 0.00949 µM, first compound 10 µM
[19] = second compound 0.03 µM, first compound 0.0316 µM
[20] = second compound 0.03 µM, first compound 0.1 µM
[21] = second compound 0.03 µM, first compound 0.316 µM
[22] = second compound 0.03 µM, first compound 1 µM
[23] = second compound 0.03 µM, first compound 3.16 µM
[24] = second compound 0.03 µM, first compound 10 µM
[25] = second compound 0.0949 µM, first compound 0.0316 µM
[26] = second compound 0.0949 µM, first compound 0.1 µM
[27] = second compound 0.0949 µM, first compound 0.316 µM
[28] = second compound 0.0949 µM, first compound 1 µM
[29] = second compound 0.0949 µM, first compound 3.16 µM
[30] = second compound 0.0949 µM, first compound 10 µM
[31] = second compound 0.3 µM, first compound 0.0316 µM
[32] = second compound 0.3 µM, first compound 0.1 µM
[33] = second compound 0.3 µM, first compound 0.316 µM
[34] = second compound 0.3 µM, first compound 1 µM
[35] = second compound 0.3 µM, first compound 3.16 µM
[36] = second compound 0.3 µM, first compound 10 µM
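Note: spheroids exposed to agents for seven days before the viability readout.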
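Throughout, for viability, T/C: luminescence used as a proxy for viable cell amount.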

## Cc1nc(N2CCC3(CC2)COC(C)C3N)c(CO)nc1Sc1ccnc(N)c1Cl (stereo unspecified) + CCn1c(-c2cc(N3CCN(C)CC3)cnc2C(C)OC)c2c3cc(ccc31)-c1csc(n1)CC(NC(=O)C1CC1C)C(=O)N1CCCC(N1)C(=O)OCC(C)(C)C2
Second compound 0.000949 µM
  pIC50: 5.85
Second compound 0.003 µM
  pIC50: 6.19
Second compound 0.00949 µM
  pIC50: 6.65
Second compound 0.03 µM
  pIC50: > 7.50
Second compound 0.0949 µM
  pIC50: > 7.50
Second compound 0.3 µM
  pIC50: > 7.50
[1]
  viability, T/C: 99.3%
[2]
  viability, T/C: 71.3%
[3]
  viability, T/C: 80.2%
[4]
  viability, T/C: 55.4%
[5]
  viability, T/C: 35.8%
[6]
  viability, T/C: 16.7%
[7]
  viability, T/C: 89%
[8]
  viability, T/C: 64.3%
[9]
  viability, T/C: 61.8%
[10]
  viability, T/C: 51.8%
[11]
  viability, T/C: 22%
[12]
  viability, T/C: 11%
[13]
  viability, T/C: 64.3%
[14]
  viability, T/C: 53.4%
[15]
  viability, T/C: 48.2%
[16]
  viability, T/C: 19.5%
[17]
  viability, T/C: 8.78%
[18]
  viability, T/C: 7.55%
[19]
  viability, T/C: 38.6%
[20]
  viability, T/C: 39.2%
[21]
  viability, T/C: 14.5%
[22]
  viability, T/C: 8.49%
[23]
  viability, T/C: 8.08%
[24]
  viability, T/C: 6.16%
[25]
  viability, T/C: 15.2%
[26]
  viability, T/C: 13.1%
[27]
  viability, T/C: 10.9%
[28]
  viability, T/C: 9.07%
[29]
  viability, T/C: 6.17%
[30]
  viability, T/C: 4%
[31]
  viability, T/C: 10.7%
[32]
  viability, T/C: 11.6%
[33]
  viability, T/C: 9.12%
[34]
  viability, T/C: 7.56%
[35]
  viability, T/C: 6.68%
[36]
  viability, T/C: 5.63%

## NC1c2ccccc2OC12CCN(c1cnc3c(N4CCCc5ncccc54)n[nH]c3n1)CC2 (stereo unspecified) + CCn1c(-c2cc(N3CCN(C)CC3)cnc2C(C)OC)c2c3cc(ccc31)-c1csc(n1)CC(NC(=O)C1CC1C)C(=O)N1CCCC(N1)C(=O)OCC(C)(C)C2
Second compound 0.000949 µM
  pIC50: 6.94
Second compound 0.003 µM
  pIC50: 7.20
Second compound 0.00949 µM
  pIC50: > 7.50
Second compound 0.03 µM
  pIC50: > 7.50
Second compound 0.0949 µM
  pIC50: > 7.50
Second compound 0.3 µM
  pIC50: > 7.50
[1]
  viability, T/C: 85.1%
[2]
  viability, T/C: 54.5%
[3]
  viability, T/C: 20.4%
[4]
  viability, T/C: 8.29%
[5]
  viability, T/C: 8.32%
[6]
  viability, T/C: 8.57%
[7]
  viability, T/C: 69.2%
[8]
  viability, T/C: 37.2%
[9]
  viability, T/C: 8.71%
[10]
  viability, T/C: 5.81%
[11]
  viability, T/C: 5.89%
[12]
  viability, T/C: 8.17%
[13]
  viability, T/C: 44.1%
[14]
  viability, T/C: 11.7%
[15]
  viability, T/C: 6.79%
[16]
  viability, T/C: 5.19%
[17]
  viability, T/C: 5.86%
[18]
  viability, T/C: 7.32%
[19]
  viability, T/C: 15.4%
[20]
  viability, T/C: 9.39%
[21]
  viability, T/C: 6.76%
[22]
  viability, T/C: 6.09%
[23]
  viability, T/C: 6.31%
[24]
  viability, T/C: 7.21%
[25]
  viability, T/C: 10.1%
[26]
  viability, T/C: 7.59%
[27]
  viability, T/C: 5.43%
[28]
  viability, T/C: 4.79%
[29]
  viability, T/C: 4.55%
[30]
  viability, T/C: 7.03%
[31]
  viability, T/C: 9.29%
[32]
  viability, T/C: 7.37%
[33]
  viability, T/C: 5.01%
[34]
  viability, T/C: 4.13%
[35]
  viability, T/C: 4.98%
[36]
  viability, T/C: 5.88%

## Nc1ccn(C2OC(CO)C(O)C2(F)F)c(=O)n1 (stereo unspecified) + CCn1c(-c2cc(N3CCN(C)CC3)cnc2C(C)OC)c2c3cc(ccc31)-c1csc(n1)CC(NC(=O)C1CC1C)C(=O)N1CCCC(N1)C(=O)OCC(C)(C)C2
Second compound 0.000949 µM
  pIC50: 6.60
Second compound 0.003 µM
  pIC50: 6.88
Second compound 0.00949 µM
  pIC50: 7.58
Second compound 0.03 µM
  pIC50: > 8.50
Second compound 0.0949 µM
  pIC50: > 8.50
Second compound 0.3 µM
  pIC50: > 8.50
Second compound 0.000949 µM, first compound 0.00316 µM
  viability, T/C: 93.1%
Second compound 0.000949 µM, first compound 0.01 µM
  viability, T/C: 82.9%
[1]
  viability, T/C: 80.5%
[2]
  viability, T/C: 56.4%
[3]
  viability, T/C: 50.5%
[4]
  viability, T/C: 37.6%
Second compound 0.003 µM, first compound 0.00316 µM
  viability, T/C: 98.1%
Second compound 0.003 µM, first compound 0.01 µM
  viability, T/C: 80.1%
[7]
  viability, T/C: 62.3%
[8]
  viability, T/C: 52.8%
[9]
  viability, T/C: 44.4%
[10]
  viability, T/C: 37.3%
Second compound 0.00949 µM, first compound 0.00316 µM
  viability, T/C: 77%
Second compound 0.00949 µM, first compound 0.01 µM
  viability, T/C: 62.2%
[13]
  viability, T/C: 49.2%
[14]
  viability, T/C: 33.2%
[15]
  viability, T/C: 30%
[16]
  viability, T/C: 23.8%
Second compound 0.03 µM, first compound 0.00316 µM
  viability, T/C: 43.4%
Second compound 0.03 µM, first compound 0.01 µM
  viability, T/C: 45.9%
[19]
  viability, T/C: 33.5%
[20]
  viability, T/C: 23.1%
[21]
  viability, T/C: 20.7%
[22]
  viability, T/C: 15.2%
Second compound 0.0949 µM, first compound 0.00316 µM
  viability, T/C: 21.1%
Second compound 0.0949 µM, first compound 0.01 µM
  viability, T/C: 21.4%
[25]
  viability, T/C: 14.4%
[26]
  viability, T/C: 11.9%
[27]
  viability, T/C: 14.8%
[28]
  viability, T/C: 11.5%
Second compound 0.3 µM, first compound 0.00316 µM
  viability, T/C: 9.67%
Second compound 0.3 µM, first compound 0.01 µM
  viability, T/C: 13.7%
[31]
  viability, T/C: 12.9%
[32]
  viability, T/C: 11.4%
[33]
  viability, T/C: 10.9%
[34]
  viability, T/C: 9.09%
